Test results taken from ChEMBL document CHEMBL1201862, “PubChem BioAssay data set” (2004).
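Cells were grown in 96-well plates and exposed to each compound for 48 hours at five concentrations; endpoints were interpolated linearly between bracketing concentrations, or set to the highest concentration if not reached. GI50: concentration for 50% inhibition of growth.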 Activity calls are given as the source filed them. Cut-off read from the data, not from the text of the source: active = GI50 up to about 1.1 µM and inactive = higher.

What was measured:
Assay in all cases: NCI tumour cell line growth inhibition, 48 h
MDA-MB-231 = test system: MDA-MB-231
MDA-N = test system: MDA-N
A498 = test system: A498
Malme-3M = test system: Malme-3M
SN12C = test system: SN12C
EKVX = test system: EKVX
BT-549 = test system: BT-549
K562 = test system: K562
HCT-116 = test system: HCT-116
HCC 2998 = test system: HCC 2998
M14 = test system: M14
786-0 = test system: 786-0
CAKI-1 = test system: CAKI-1
SF-539 = test system: SF-539
SK-OV-3 = test system: SK-OV-3
PC-3 = test system: PC-3
UO-31 = test system: UO-31
M19-MEL = test system: M19-MEL
DLD-1 = test system: DLD-1

Measured: GI50

COc1cc2c(OC)c(c1)CCCC1=CC(=O)C=C(CCC2)C1=O
inactive: MDA-MB-231 25.5 µM | MDA-N 15.2 µM | A498 > 100 µM | Malme-3M 10.4 µM | SN12C 20.8 µM | EKVX 41.1 µM | BT-549 33.3 µM | K562 14.6 µM | HCT-116 17.1 µM | HCC 2998 43.5 µM | M14 26.7 µM | 786-0 29 µM | CAKI-1 > 100 µM | SF-539 35.6 µM | SK-OV-3 56.9 µM | PC-3 28.6 µM | UO-31 43.9 µM

CCOC(=O)Nc1nn[nH]c1Cl
inactive: MDA-MB-231 > 100 µM | MDA-N > 100 µM | A498 > 100 µM | Malme-3M > 100 µM | SN12C > 100 µM | EKVX > 100 µM | BT-549 > 100 µM | K562 > 100 µM | HCT-116 > 100 µM | HCC 2998 > 100 µM | M14 > 100 µM | 786-0 > 100 µM | CAKI-1 > 100 µM | SF-539 > 100 µM | SK-OV-3 > 100 µM | PC-3 > 100 µM | UO-31 > 100 µM

COc1nc(NC2OC(COC(C)=O)C(OC(C)=O)C(OC(C)=O)C2OC(C)=O)c2c(OC(C)=O)c(C)c(=O)oc2n1 (stereo not drawn)
inactive: A498 1.75 µM | Malme-3M > 100 µM | SN12C > 100 µM | EKVX > 100 µM | K562 > 100 µM | HCT-116 > 100 µM | HCC 2998 > 100 µM | M14 > 100 µM | M19-MEL > 100 µM | 786-0 > 100 µM | CAKI-1 > 100 µM | DLD-1 > 100 µM | SF-539 > 100 µM | SK-OV-3 > 100 µM | UO-31 > 100 µM

COC1CC(OC)C(O)C(CO)O1 (stereo not drawn)
inactive: Malme-3M > 100 µM | SN12C > 100 µM | EKVX > 100 µM | K562 > 100 µM | HCT-116 > 100 µM | HCC 2998 > 100 µM | M14 > 100 µM | M19-MEL > 100 µM | 786-0 > 100 µM | DLD-1 > 100 µM | SF-539 > 100 µM | SK-OV-3 > 100 µM | UO-31 > 100 µM

CCCC(=O)Nc1cc(C(=O)N2C[C@@H]3C[C@]34C2=CC(=O)c2[nH]cc(C)c24)n(COC)c1
inactive: MDA-MB-231 8.53 µM | MDA-N 8.65 µM | A498 10 µM | Malme-3M 2.59 µM | SN12C 10.6 µM | EKVX 12.6 µM | BT-549 8.43 µM | K562 2.33 µM | HCT-116 7.87 µM | HCC 2998 3.28 µM | M14 12.4 µM | 786-0 5.47 µM | CAKI-1 2.21 µM | SF-539 7.06 µM | SK-OV-3 16.3 µM | PC-3 7.33 µM | UO-31 8.97 µM

N#CC(C#N)=C1SC(=N\c2ccccc2)/C(=N/c2ccccc2)N1c1ccccc1
inactive: MDA-MB-231 7.8 µM | MDA-N 12.4 µM | A498 > 52.2 µM | Malme-3M 22.2 µM | SN12C 23.9 µM | EKVX 36.6 µM | BT-549 8.24 µM | K562 2.3 µM | HCT-116 14.4 µM | HCC 2998 15.2 µM | M14 25.3 µM | 786-0 14.8 µM | CAKI-1 11.8 µM | SF-539 10.1 µM | SK-OV-3 > 100 µM | PC-3 7.6 µM | UO-31 12.7 µM

CO/C=C(/C(=O)OC)c1ccccc1COc1cccc(C(F)(F)F)c1
inactive: MDA-MB-231 7.89 µM | MDA-N 2.54 µM | A498 4.85 µM | Malme-3M 1.41 µM | SN12C 8.28 µM | EKVX 3.56 µM | BT-549 6.28 µM | K562 3.76 µM | HCT-116 2.4 µM | HCC 2998 10.8 µM | M14 68.7 µM | 786-0 8.09 µM | CAKI-1 4.84 µM | SF-539 4.97 µM | SK-OV-3 27.9 µM | PC-3 7.43 µM | UO-31 4.17 µM

COC(=O)c1c(O)ccc2c1c1c(n2Cc2ccccc2OC)C(=O)c2ccccc2C1=O
inactive: MDA-MB-231 13.5 µM | MDA-N 13.3 µM | A498 40 µM | Malme-3M 21 µM | SN12C 10 µM | EKVX 24.5 µM | BT-549 13.3 µM | K562 1.67 µM | HCT-116 5.46 µM | HCC 2998 6.27 µM | M14 8.45 µM | 786-0 11.4 µM | CAKI-1 15.8 µM | SF-539 19.3 µM | SK-OV-3 16.3 µM | PC-3 10.4 µM | UO-31 5.42 µM

COC(=O)C1([C@@H]2C[C@@H](O)[C@]3(C)CC/C=C(\C)CCC[C@H](C)[C@H](O)[C@@H]2O3)CC1
inactive: MDA-MB-231 90.2 µM | MDA-N 72.3 µM | A498 > 100 µM | Malme-3M > 100 µM | SN12C > 100 µM | EKVX 81.7 µM | BT-549 53.7 µM | K562 34.8 µM | HCT-116 51.2 µM | HCC 2998 63.1 µM | M14 53.3 µM | 786-0 92.3 µM | CAKI-1 > 100 µM | SF-539 91 µM | SK-OV-3 > 100 µM | PC-3 31.8 µM | UO-31 23.8 µM

O=c1[nH]nc(Cc2ccccc2)n1/N=C/c1cccs1
inactive: MDA-MB-231 23.4 µM | MDA-N > 100 µM | A498 16 µM | Malme-3M > 100 µM | SN12C > 100 µM | EKVX > 100 µM | BT-549 > 100 µM | K562 > 100 µM | HCT-116 > 100 µM | HCC 2998 > 100 µM | M14 > 100 µM | 786-0 > 100 µM | CAKI-1 > 100 µM | SF-539 > 100 µM | SK-OV-3 > 100 µM | PC-3 > 100 µM | UO-31 > 100 µM

Cc1cc(N(CCC#N)CCC#N)ccc1C(/N=N/c1ccc(C(=O)O)cc1)=N\NC(=O)c1ccccc1
inactive: MDA-MB-231 57.8 µM | MDA-N 4.31 µM | A498 22.3 µM | Malme-3M 22.5 µM | SN12C 47.3 µM | EKVX > 100 µM | BT-549 55.6 µM | K562 12.7 µM | HCT-116 35 µM | HCC 2998 17.3 µM | M14 36.6 µM | 786-0 41.3 µM | CAKI-1 > 100 µM | SF-539 16.3 µM | SK-OV-3 49.2 µM | PC-3 26.1 µM | UO-31 42.7 µM

O=[N+]([O-])c1ccc(N/N=C/c2ccc(OCCCCCCCCCCCO)cc2)c([N+](=O)[O-])c1
inactive: MDA-MB-231 35.2 µM | MDA-N 3.58 µM | A498 36 µM | Malme-3M 1.72 µM | SN12C 3.24 µM | EKVX 17 µM | BT-549 5.94 µM | K562 1.15 µM | HCT-116 17.4 µM | HCC 2998 4.78 µM | M14 1.39 µM | 786-0 1.91 µM | CAKI-1 3.34 µM | SF-539 1.97 µM | SK-OV-3 4.24 µM | PC-3 2.45 µM | UO-31 7.35 µM
